Measured values taken from patent publication US20090156646A1, “PYRIDYLPHENOL COMPOUND AND USE THEREOF” (TAKEDA PHARMACEUTICAL COMPANY LIMITED, priority 2005, published 2009).
Structures can show the parent of a compound that is named as a salt.

Experiments:
[1] = biological target: T1, human metastin receptor hOT7T175 (Homo sapiens, UniProt Q969F8, L364H); assay: binding inhibiting activity: 125I-metastin (40-54) binding to cell membrane fraction of h175 KB34 cells; settings: room temperature 60 minutes, read-out: binding inhibiting activity, represented by the IC50 value
T1 construct: encoding the entire length of human metastin receptor hOT7T175; expressed in transfected cells; host or cells: CHO/dhFr- cells (ATCC #CRL-9096) stably transfected with pAKKO-hOT7T175; clone h175-16 was used as whole cells for FLIPR
Summary of the method: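 Membranes came from CHO/dhfr− cells stably expressing human hOT7T175 (clone h175 KB34) and were diluted 250-fold for use. Binding of 125I-metastin (40-54) was run in 20 mM Tris, 2.5 mM magnesium acetate and 2 mM EGTA, pH 7.4, with protease inhibitors, either without BSA or with 1 mg/ml BSA.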

[2] = biological target: T1, human metastin receptor hOT7T175; assay: FLIPR assay of metastin-induced change in intracellular calcium in h175-16 cells (antagonist activity); assay type: cell-based; settings: human metastin (40-54) as ligand, Fluo-3 fluorescence
Method: cDNA fragments (SEQ ID NO: 2) encoding the entire length of human metastin receptor hOT7T175 were incorporated into expression vector pAKKO1.11H to produce animal cell expression plasmids pAKKO-hOT7T175. CHO/dhFr-cells (ATCC, #CRL-9096) were seeded onto 6 cm culture dishes (Becton Dickinson) at a density of 0.3×10^6 cells/dish, and cultured in the conditions of 48 hours, 37° C. and 5% CO2. 5 μg pAKKO-hOT7T175 plasmid DNA was transfected to the resultant cells by a known method (described in Example 3 of WO 00/24890) using the Cellphect Transfection Kit (Amersham, #27-9268-01). The DNA-transfected cells were cultured in the Dulbecco's modified Eagle medium (DMEM) (Sigma, #D6046) containing 10% dialyzed FBS (Biowest, #S180D), 1× Non-Essential Amino Acid (Invitrogen, #11140-050) and 50 μg/ml Gentamycin (Invitrogen, #15750-060; and cell strains stably expressing the plasmid genes were selected. The obtained 41 clones were treated with the FLIPR assay (in accordance with the method described in Example 3 of WO 00/24890), and the reactivity to the human metastin […] (Nos. 40 to 54 of the human metastin sequence; Peptide Institute, Inc., #4389-v) was evaluated. In the end, h175 KB34 cell strains were selected. By substantially the same method, h175-16 cell strains were also produced.
The h175-16 cell strains prepared in Test Example 1 were seeded onto a 96-well plate (Corning, #3904) at 3×10^4 cell/well, and cultured for 24 hours on a CO2 incubator (cell seeding plate).
A calcium kit buffer containing 0.1% BSA [20 mM HEPES, 115 mM NaCl, 5.4 mM KCl, 0.8 mM MgCl2, 1.8 mM CaCl2, 13.8 mM D-glucose, pH 7.4, with an attached calcium kit produced by Dojin] was prepared and kept warm at 37° C. Then, the medium in the wells of the cell seeding plate was removed, and […] of the calcium kit buffer was added to each well. 50 μl 250 mM Probenecid (with an attached calcium kit produced by Dojin), 80 μl 5% Pluronic F-127 (with an attached calcium kit produced by Dojin) and 25 μl Fluo-3 AM (powder with an attached calcium kit produced by Dojin was dissolved in DMSO at 1 mg/ml) were added to the calcium kit buffer containing 5 ml 0.1% BSA (an amount for measuring one plate) to prepare a loading solution. 50 μl of the loading solution was added to each well to allow a reaction at 37° C. for 1 hour. Thus, Fluo-3 AM was loaded onto the cells. Then, the solution in each well was removed, and 100 μl of the calcium kit buffer containing 1.25 mM Probenecid and 0.1% BSA was added to each well.
50 μl of a test compound diluted with the calcium kit buffer containing 0.1% BSA was added to each well, and stirred by a plate shaker. A cell plate, and a ligand plate provided with human metastin (40-54) (AnyGen) diluted to 400 μM with the calcium kit buffer containing 0.1% BSA, were set to the Fluorometric Imaging Plate Reader (FLIPR, Molecular Devices), and […] was added to each well using an automatic divider in the FLIPR. A change in the calcium concentration in the cells, which corresponded to the ligand response, was measured by a CCD camera in the FLIPR as a change in the amount of fluorescence of Fluo-3. The obtained change in the amount of fluorescence was plotted against the concentration of the test compound, and the compound concentration at which 50% of the change in the amount of fluorescence (i.e., IC50 value) was inhibited was calculated.

[3] = tested on: blood LH level; assay: Suppression of the blood LH level of castrated rats; assay type: in vivo, rat; settings: male castrated Wistar rats
Method: The compound of Example 303 was intravenously administered to male castrated rats, and the blood LH level was measured. Male Wistar rats (Japan SLC, Inc.), which were castrated 7 days before the experiment and were 11 weeks old at the time of the experiment, were used. […] To the control animals (n=8), only 20% DMSO-[…]% PEG400 used as a dispersion medium was intravenously administered in an amount of 0.8 ml/kg every 10 minutes, 5 times in succession. […] The LH concentration in the plasma was measured by radioimmunoassay. […] The start time of the administration was set to 0 (represented with the arrow).

T1 sequence (Q969F8 whole entry L364H): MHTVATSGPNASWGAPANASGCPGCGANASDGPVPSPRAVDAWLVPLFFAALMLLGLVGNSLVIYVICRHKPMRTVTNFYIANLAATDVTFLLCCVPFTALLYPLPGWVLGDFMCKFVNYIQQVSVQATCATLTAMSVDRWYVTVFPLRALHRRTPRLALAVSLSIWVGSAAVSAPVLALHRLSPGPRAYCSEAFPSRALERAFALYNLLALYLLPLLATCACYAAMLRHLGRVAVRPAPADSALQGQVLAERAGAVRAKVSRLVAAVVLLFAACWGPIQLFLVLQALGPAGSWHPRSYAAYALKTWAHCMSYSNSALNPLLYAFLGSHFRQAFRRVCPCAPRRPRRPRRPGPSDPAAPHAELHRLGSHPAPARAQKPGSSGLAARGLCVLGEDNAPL

| SMILES | IC50 [1] [µM] | IC50 [2] [µM] | melting point [°C] | blood LH concentration, % of that of the control group ([3]; intravenous 0.22 mg/kg every 10 minutes 5 times, 60 minutes after the start of administration, P<0.01) [%] | effect on blood LH concentration (in words) ([3]; intravenously administered) |
| --- | --- | --- | --- | --- | --- |
| N#Cc1c(-c2cccc(NC(=O)CCCN)c2)cc(-c2ccccc2O)nc1NC(=O)c1cccs1 [Example 23, N-[4-{3-[(4-aminobutanoyl)amino]phenyl}-3-cyano-6-(2-hydroxyphenyl)pyridin-2-yl]thiophene-2-carboxamide dihydrochloride] | ≤ 10 | ≤ 10 |  |  |  |
| NCCC(=O)Nc1cccc(-c2cc(NC(=O)c3cccs3)nc(-c3ccccc3O)c2)c1 [Example 27, N-{4-[3-(β-alanylamino)phenyl]-6-(2-hydroxyphenyl)pyridin-2-yl}thiophene-2-carboxamide dihydrochloride] | ≤ 10 | ≤ 10 |  |  |  |
| Cl.N#Cc1c(-c2cccc(N3CCNCC3)c2)cc(-c2ccc(F)cc2O)nc1NC(=O)c1ccco1 [Example 303, N-[3-cyano-6-(4-fluoro-2-hydroxyphenyl)-4-(3-piperazin-1-ylphenyl)pyridin-2-yl]-2-furamide hydrochloride] | ≤ 10 |  |  | 68 | significantly decreasing the blood LH concentration |

The next lines start with results.

| IC50 [1] [µM] | IC50 [2] [µM] | melting point [°C] | SMILES | blood LH concentration, % of that of the control group ([3]; intravenous 0.22 mg/kg every 10 minutes 5 times, 60 minutes after the start of administration, P<0.01) [%] | effect on blood LH concentration (in words) ([3]; intravenously administered) |
| --- | --- | --- | --- | --- | --- |
| ≤ 10 | ≤ 10 | 203 to 210 | Cl.N#Cc1c(-c2cccc(C(=O)NCCN)c2)cc(-c2ccccc2O)nc1NC(=O)c1cccs1 [Example 3, N-[4-(3-{[(2-aminoethyl)amino]carbonyl}phenyl)-3-cyano-6-(2-hydroxyphenyl)pyridin-2-yl]thiophene-2-carboxamide hydrochloride] |  |  |
| ≤ 10 | ≤ 10 |  | N#Cc1c(-c2cccc(NC(=O)CN)c2)cc(-c2ccccc2O)nc1NC(=O)c1cccs1 [Example 12, N-[3-cyano-4-[3-(glycylamino)phenyl]-6-(2-hydroxyphenyl)pyridin-2-yl]thiophene-2-carboxamide dihydrochloride] |  |  |
| ≤ 10 | ≤ 10 | 223 to 228 | Cl.N#Cc1c(-c2cccc(NC(=O)CCN)c2)cc(-c2ccccc2O)nc1NC(=O)c1cccs1 [Example 14, N-{4-[3-(β-alanylamino)phenyl]-3-cyano-6-(2-hydroxyphenyl)pyridin-2-yl}thiophene-2-carboxamide hydrochloride] |  |  |
